Source: patent US6737383B1, “Herbicidal oxadiazolidines” (priority 1999, dated 2004)

Legend:
giant foxtail = assay: Test B pre/postemergence giant foxtail; type: in vivo, Setaria faberii
In short: (§1)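 Response is a visual 0-to-10 score relative to untreated plants, where 0 means no effect and 10 means complete control, taken twelve to sixteen days after application. Treatments went onto soil at planting and onto foliage of 1- to 4-leaf plants, using a surfactant-containing non-phytotoxic solvent.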

rape = assay: Test B pre/postemergence rape; type: in vivo, Brassica napus
In short: as §1

rice = assay: Test B flood test rice; type: in vivo, Oryza sativa
In short: (§2)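 Read-out is a visual response score from 0 (no effect) to 10 (complete control), assigned by comparison with untreated controls. Treatment was applied at the 2-leaf stage, and plants stayed in the greenhouse for twelve to sixteen days before scoring.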

cocklebur = assay: Test B pre/postemergence cocklebur; type: in vivo, Xanthium strumarium
In short: as §1

corn = assay: Test B pre/postemergence corn; type: in vivo, Zea mays
In short: as §1

wild oat = assay: Test B pre/postemergence wild oat; type: in vivo, Avena fatua
In short: as §1

blackgrass = assay: Test B pre/postemergence blackgrass; type: in vivo, Alopecurus myosuroides
In short: as §1

duck salad = assay: Test B flood test duck salad; type: in vivo, Heteranthera limosa
In short: as §2

smallflower flatsedge = assay: Test B flood test smallflower flatsedge; type: in vivo, Cyperus difformis
In short: as §2

wheat = assay: Test B pre/postemergence wheat; type: in vivo, Triticum aestivum
In short: as §1

surinam grass = assay: Test B pre/postemergence surinam grass; type: in vivo, Brachiaria decumbens
In short: as §1

bamyardgrass = assay: Test B flood test barnyardgrass; type: in vivo, Echinochloa crus-galli
In short: as §2

bedstraw = assay: Test B pre/postemergence bedstraw; type: in vivo, Galium aparine
In short: as §1

pigweed = assay: Test B pre/postemergence pigweed; type: in vivo, Amaranthus retroflexus
In short: as §1

crabgrass = assay: Test B pre/postemergence crabgrass; type: in vivo, Digitaria sanguinalis
In short: as §1

velvetleaf = assay: Test B pre/postemergence velvetleaf; type: in vivo, Abutilon theophrasti
In short: as §1

purple nutsedge = assay: Test B pre/postemergence purple nutsedge; type: in vivo, Cyperus rotundus
In short: as §1

morningglory = assay: Test B pre/postemergence morningglory; type: in vivo, Ipomoea hederacea
In short: as §1

sugar beet = assay: Test B pre/postemergence sugar beet; type: in vivo, Beta vulgaris
In short: as §1

soybean = assay: Test B pre/postemergence soybean; type: in vivo, Glycine max
In short: as §1

[1] = Postemergence, Rate 125 g/ha, scale of 0 to 10 where 0 is no effect and 10 is complete control
[2] = Postemergence, Rate 1000 g/ha, scale 0 to 10 (0 no effect, 10 complete control)
[3] = Preemergence, Rate 125 g/ha, scale of 0 to 10 where 0 is no effect and 10 is complete control
[4] = Preemergence, Rate 500 g/ha, scale of 0 to 10 where 0 is no effect and 10 is complete control
[5] = Rate 250 g/ha, Postemergence, scale 0 to 10, 0 is no effect, 10 is complete control
[6] = Rate 500 g/ha, Postemergence, scale 0 to 10, 0 is no effect, 10 is complete control
[7] = Rate 1000 g/ha, Preemergence, scale 0 to 10 (0 no effect, 10 complete control)
[8] = Pre-emergence, Rate 1000 g/ha, scale 0 to 10 (0 no effect, 10 complete control)
[9] = Rate 125 g/ha, under heading Pre-emergence, flood test species, visual evaluation after twelve to sixteen days
[10] = Rate 250 g/ha, Pre-emergence (flood test species), scale 0 to 10, 0 is no effect, 10 is complete control
[11] = Rate 500 g/ha, Pre-emergence section of Table B, 0 to 10 scale (0 no effect, 10 complete control)
[12] = Preemergence, Rate 250 g/ha, scale 0 to 10 (0 no effect, 10 complete control)
[13] = Preemergence, Rate 62 g/ha, scale of 0 to 10 where 0 is no effect and 10 is complete control
[14] = Preemergence, Rate 250 g/ha, scale 0 (no effect) to 10 (complete control)
[15] = Pre-emergence, Rate 62 g/ha, scale 0 to 10, 0 is no effect, 10 is complete control
[16] = Rate 125 g/ha, Pre-emergence section (flood test species), scale 0 to 10, 0 no effect, 10 complete control

## COC(=O)C(CCO)n1c(=O)on(C(=O)N(c2ccc(Cl)cc2)C(C)C)c1=O (centres unmarked) [Compound 679]
Giant foxtail; [1]
  Giant foxtail plant response rating: 0
Giant foxtail; [2]
  Giant foxtail plant response rating: 5
Giant foxtail; [3]
  Plant response rating, Giant foxtail: 0
Giant foxtail; [4]
  Plant response rating, Giant foxtail: 8
Giant foxtail; [5]
  Giant foxtail plant response rating: 0
Giant foxtail; [6]
  Giant foxtail plant response rating: 4
Giant foxtail; [7]
  Plant response rating, Giant foxtail: 8
rape; [1]
  Rape plant response rating: 0
rape; [2]
  Rape plant response rating: 0
rape; [3]
  Plant response rating, Rape: 0
rape; [4]
  Plant response rating, Rape: 0
rape; [5]
  Rape plant response rating: 0
rape; [6]
  Rape plant response rating: 0
rape; [7]
  Plant response rating, Rape: 0
rice; [8]
  Rice plant response rating: 0
rice; [9]
  Rice plant response rating (0 to 10 scale, 0 is no effect, 10 is complete control): 0
rice; [10]
  Rice plant response rating: 0
rice; [11]
  Rice plant response rating: 0
cocklebur; [1]
  Cocklebur plant response rating: 0
cocklebur; [2]
  Cocklebur plant response rating: 1
cocklebur; [3]
  Plant response rating, Cocklebur: 0
cocklebur; [12]
  Plant response rating, Cocklebur: 0
cocklebur; [4]
  Plant response rating, Cocklebur: 0
cocklebur; [5]
  Cocklebur plant response rating: 0
cocklebur; [6]
  Cocklebur plant response rating: 0
cocklebur; [7]
  Plant response rating, Cocklebur: 0
corn; [1]
  Corn plant response rating: 0
corn; [2]
  Corn plant response rating: 0
corn; [3]
  Plant response rating, Corn: 0
corn; [12]
  Plant response rating, Corn: 0
corn; [4]
  Plant response rating, Corn: 0
corn; [5]
  Corn plant response rating: 0
corn; [6]
  Corn plant response rating: 0
corn; [7]
  Plant response rating, Corn: 2
Wild oat; [1]
  Wild oats plant response rating: 0
Wild oat; [3]
  Plant response rating, Wild oats: 0
Wild oat; [4]
  Plant response rating, Wild oats: 0
Wild oat; [5]
  Wild oats plant response rating: 0
Wild oat; [6]
  Wild oats plant response rating: 0
Wild oat; [7]
  Plant response rating, Wild oats: 0
blackgrass; [1]
  Blackgrass plant response rating: 0
blackgrass; [2]
  Blackgrass plant response rating: 1
blackgrass; [3]
  Plant response rating, Blackgrass: 0
blackgrass; [12]
  Plant response rating, Blackgrass: 0
blackgrass; [4]
  Plant response rating, Blackgrass: 0
blackgrass; [5]
  Blackgrass plant response rating: 0
blackgrass; [6]
  Blackgrass plant response rating: 0
blackgrass; [7]
  Plant response rating, Blackgrass: 5
Duck salad; [8]
  Ducksalad plant response rating: 0
Duck salad; [9]
  Ducksalad plant response rating (0 to 10 scale, 0 is no effect, 10 is complete control): 0
Duck salad; [10]
  Ducksalad plant response rating: 0
Duck salad; [11]
  Ducksalad plant response rating: 0
Smallflower flatsedge; [8]
  S. Flatsedge plant response rating: 0
Smallflower flatsedge; [9]
  S. Flatsedge plant response rating (0 to 10 scale, 0 is no effect, 10 is complete control): 0
Smallflower flatsedge; [10]
  S. Flatsedge plant response rating: 0
Smallflower flatsedge; [11]
  S. Flatsedge plant response rating: 0
wheat; [1]
  Wheat plant response rating: 0
wheat; [3]
  Plant response rating, Wheat: 0
wheat; [4]
  Plant response rating, Wheat: 0
wheat; [5]
  Wheat plant response rating: 0
wheat; [6]
  Wheat plant response rating: 0
wheat; [7]
  Plant response rating, Wheat: 0
Surinam grass; [1]
  B. signalgrass plant response rating: 0
Surinam grass; [2]
  B. signalgrass plant response rating: 0
Surinam grass; [3]
  Plant response rating, B. signalgrass: 0
Surinam grass; [12]
  Plant response rating, B. signalgrass: 0
Surinam grass; [4]
  Plant response rating, B. signalgrass: 0
Surinam grass; [5]
  B. signalgrass plant response rating: 0
Surinam grass; [6]
  B. signalgrass plant response rating: 0
Surinam grass; [7]
  Plant response rating, B. signalgrass: 0
bamyardgrass; [8]
  Barnyardgrass plant response rating: 0
bamyardgrass; [9]
  Barnyardgrass plant response rating (0 to 10 scale, 0 is no effect, 10 is complete control): 0
bamyardgrass; [10]
  Barnyardgrass plant response rating: 0
bamyardgrass; [11]
  Barnyardgrass plant response rating: 0
bedstraw; [1]
  Bedstraw plant response rating: 0
bedstraw; [5]
  Bedstraw plant response rating: 0
bedstraw; [6]
  Bedstraw plant response rating: 0
pigweed; [1]
  Redroot pigweed plant response rating: 0
pigweed; [2]
  Redroot pigweed plant response rating: 2
pigweed; [3]
  Plant response rating, Redroot pigweed: 0
pigweed; [4]
  Plant response rating, Redroot pigweed: 1
pigweed; [5]
  Redroot pigweed plant response rating: 0
pigweed; [6]
  Redroot pigweed plant response rating: 0
pigweed; [7]
  Plant response rating, Redroot pigweed: 6
crabgrass; [1]
  Crabgrass plant response rating: 0
crabgrass; [2]
  Crabgrass plant response rating: 2
crabgrass; [3]
  Plant response rating, Crabgrass: 0
crabgrass; [12]
  Plant response rating, Crabgrass: 0
crabgrass; [4]
  Plant response rating, Crabgrass: 1
crabgrass; [5]
  Crabgrass plant response rating: 0
crabgrass; [7]
  Plant response rating, Crabgrass: 3
velvetleaf; [1]
  Velvetleaf plant response rating: 0
velvetleaf; [3]
  Plant response rating, Velvetleaf: 0
velvetleaf; [4]
  Plant response rating, Velvetleaf: 0
velvetleaf; [5]
  Velvetleaf plant response rating: 0
velvetleaf; [6]
  Velvetleaf plant response rating: 0
velvetleaf; [7]
  Plant response rating, Velvetleaf: 0
Purple nutsedge; [1]
  Nutsedge plant response rating: 0
Purple nutsedge; [2]
  Nutsedge plant response rating: 0
Purple nutsedge; [3]
  Plant response rating, Nutsedge: 0
Purple nutsedge; [4]
  Plant response rating, Nutsedge: 0
Purple nutsedge; [5]
  Nutsedge plant response rating: 0
Purple nutsedge; [6]
  Nutsedge plant response rating: 0
morningglory; [1]
  Morningglory plant response rating: 0
morningglory; [2]
  Morningglory plant response rating: 2
morningglory; [3]
  Plant response rating, Morningglory: 0
morningglory; [4]
  Plant response rating, Morningglory: 0
morningglory; [5]
  Morningglory plant response rating: 0
morningglory; [6]
  Morningglory plant response rating: 2
morningglory; [7]
  Plant response rating, Morningglory: 0
Sugar beet; [1]
  Sugarbeets plant response rating: 0
Sugar beet; [3]
  Plant response rating, Sugarbeets: 0
Sugar beet; [4]
  Plant response rating, Sugarbeets: 0
Sugar beet; [5]
  Sugarbeets plant response rating: 0
Sugar beet; [6]
  Sugarbeets plant response rating: 0
Sugar beet; [7]
  Plant response rating, Sugarbeets: 0
soybean; [1]
  Soybean plant response rating: 0
soybean; [3]
  Plant response rating, Soybean: 0
soybean; [4]
  Plant response rating, Soybean: 0
soybean; [5]
  Soybean plant response rating: 1
soybean; [6]
  Soybean plant response rating: 1
soybean; [7]
  Plant response rating, Soybean: 0

## CC(C)N(C(=O)n1oc(=O)n(CC2=NOCC2)c1=O)c1ccccc1 [Compound 706]
Giant foxtail; [13]
  Giant foxtail plant response rating: 6
Giant foxtail; [3]
  Plant response rating, Giant foxtail: 6
Giant foxtail; [14]
  Giant foxtail plant response rating: 7
rape; [13]
  Rape plant response rating: 0
rape; [3]
  Plant response rating, Rape: 0
rape; [14]
  Rape plant response rating: 3
rice; [15]
  Rice plant response rating: 0
rice; [16]
  Rice plant response rating: 0
rice; [10]
  Rice plant response rating: 0
rice; [11]
  Rice plant response rating: 0
cocklebur; [13]
  Cocklebur plant response rating: 0
cocklebur; [3]
  Plant response rating, Cocklebur: 0
cocklebur; [14]
  Cocklebur plant response rating: 0
cocklebur; [4]
  Plant response rating, Cocklebur: 0
corn; [13]
  Corn plant response rating: 0
corn; [3]
  Plant response rating, Corn: 0
corn; [14]
  Corn plant response rating: 0
Wild oat; [13]
  Wild oats plant response rating: 4
Wild oat; [3]
  Plant response rating, Wild oats: 7
Wild oat; [14]
  Wild oats plant response rating: 8
blackgrass; [13]
  Blackgrass plant response rating: 8
blackgrass; [3]
  Plant response rating, Blackgrass: 8
blackgrass; [14]
  Blackgrass plant response rating: 10
blackgrass; [4]
  Plant response rating, Blackgrass: 10
Duck salad; [15]
  Ducksalad plant response rating: 0
Duck salad; [16]
  Ducksalad plant response rating: 0
Duck salad; [10]
  Ducksalad plant response rating: 0
Duck salad; [11]
  Ducksalad plant response rating: 0
Smallflower flatsedge; [15]
  S. Flatsedge plant response rating: 0
Smallflower flatsedge; [16]
  S. Flatsedge plant response rating: 0
Smallflower flatsedge; [10]
  S. Flatsedge plant response rating: 0
Smallflower flatsedge; [11]
  S. Flatsedge plant response rating: 0
wheat; [13]
  Wheat plant response rating: 0
wheat; [3]
  Plant response rating, Wheat: 4
wheat; [14]
  Wheat plant response rating: 5
Surinam grass; [13]
  B. signalgrass plant response rating: 2
Surinam grass; [3]
  Plant response rating, B. signalgrass: 8
Surinam grass; [14]
  B. signalgrass plant response rating: 8
Surinam grass; [4]
  Plant response rating, B. signalgrass: 10
bamyardgrass; [15]
  Barnyardgrass plant response rating: 0
bamyardgrass; [16]
  Barnyardgrass plant response rating: 0
bamyardgrass; [10]
  Barnyardgrass plant response rating: 0
bamyardgrass; [11]
  Barnyardgrass plant response rating: 0
bedstraw; [13]
  Bedstraw plant response rating: 0
bedstraw; [3]
  Plant response rating, Bedstraw: 0
bedstraw; [14]
  Bedstraw plant response rating: 0
pigweed; [13]
  Redroot pigweed plant response rating: 8
pigweed; [3]
  Plant response rating, Redroot pigweed: 8
pigweed; [14]
  Redroot pigweed plant response rating: 10
crabgrass; [13]
  Crabgrass plant response rating: 5
crabgrass; [3]
  Plant response rating, Crabgrass: 5
crabgrass; [14]
  Crabgrass plant response rating: 8
velvetleaf; [13]
  Velvetleaf plant response rating: 0
velvetleaf; [3]
  Plant response rating, Velvetleaf: 1
velvetleaf; [14]
  Velvetleaf plant response rating: 5
Purple nutsedge; [13]
  Nutsedge plant response rating: 0
Purple nutsedge; [14]
  Nutsedge plant response rating: 0
morningglory; [13]
  Morningglory plant response rating: 1
morningglory; [3]
  Plant response rating, Morningglory: 1
morningglory; [14]
  Morningglory plant response rating: 1
Sugar beet; [13]
  Sugarbeets plant response rating: 0
Sugar beet; [3]
  Plant response rating, Sugarbeets: 4
Sugar beet; [14]
  Sugarbeets plant response rating: 4
soybean; [13]
  Soybean plant response rating: 0
soybean; [3]
  Plant response rating, Soybean: 0
soybean; [14]
  Soybean plant response rating: 0
